≈ marks a conversion by molar mass, not a printed value. Calls of active or inactive are those of the source. The rule behind the calls is not given here.
Key:
[1] = Stability of the compound at pH 7; format: physicochemical; settings: buffer
[2] = system: Trichophyton mentagrophytes; test: Antifungal activity against Trichophyton mentagrophytes 445 assessed as growth inhibition after 72 to 120 hrs by microbroth dilution method; format: functional, organism-based
Lichtheimia corymbifera = test: Antifungal activity against Absidia corymbifera 272 assessed as growth inhibition after 24 to 48 hrs by microbroth dilution method; format: functional, organism-based
Aspergillus fumigatus = test: Antifungal activity against Aspergillus fumigatus 231 assessed as growth inhibition after 24 to 48 hrs by microbroth dilution method; format: functional, organism-based
Trichosporon asahii = test: Antifungal activity against Trichosporon asahii 1188 assessed as growth inhibition after 24 to 48 hrs by microbroth dilution method; format: functional, organism-based
Nakaseomyces glabratus = test: Antifungal activity against Candida glabrata 20/I assessed as growth inhibition after 24 to 48 hrs by microbroth dilution method; format: functional, organism-based
Pichia kudriavzevii = test: Antifungal activity against Candida krusei E28 assessed as growth inhibition after 24 to 48 hrs by microbroth dilution method; format: functional, organism-based
Candida albicans = test: Antifungal activity against Candida albicans ATCC 44859 assessed as growth inhibition after 24 to 48 hrs by microbroth dilution method; format: functional, organism-based
Candida tropicalis = test: Antifungal activity against Candida tropicalis 156 assessed as growth inhibition after 24 to 48 hrs by microbroth dilution method; format: functional, organism-based
Klebsiella pneumoniae [3] = test: Antibacterial activity against ESBL-positive Klebsiella pneumoniae J 14368/08 clinical isolate assessed as growth inhibition after 24 to 48 hrs by microbroth dilution method; format: functional, organism-based
Klebsiella pneumoniae [4] = test: Antibacterial activity against Klebsiella pneumoniae D 11750/08 clinical isolate assessed as growth inhibition after 24 to 48 hrs by microbroth dilution method; format: functional, organism-based
Enterococcus = test: Antibacterial activity against Enterococcus sp. J 14365/08 clinical isolate assessed as growth inhibition after 24 to 48 hrs by microbroth dilution method; format: functional, organism-based
[5] = system: Staphylococcus epidermidis; test: Antibacterial activity against Staphylococcus epidermidis H 6966/08 clinical isolate assessed as growth inhibition after 24 to 48 hrs by microbroth dilution method; format: functional, organism-based
Staphylococcus aureus [6] = test: Antibacterial activity against methicillin-resistant Staphylococcus aureus H 5996/08 clinical isolate assessed as growth inhibition after 24 to 48 hrs by microbroth dilution method; format: functional, organism-based
Pseudomonas aeruginosa = test: Antibacterial activity against Pseudomonas aeruginosa CCM 1961 assessed as growth inhibition after 24 to 48 hrs by microbroth dilution method; format: functional, organism-based
Escherichia coli = test: Antibacterial activity against Escherichia coli CCM 4517 assessed as growth inhibition after 24 to 48 hrs by microbroth dilution method; format: functional, organism-based
Staphylococcus aureus [7] = test: Antibacterial activity against Staphylococcus aureus CCM 4516/08 assessed as growth inhibition after 24 to 48 hrs by microbroth dilution method; format: functional, organism-based
[8] = Lipophilicity, log K of the compound by HPLC analysis; format: physicochemical
Mycobacterium avium [9] = test: Antimycobacterial activity against Mycobacterium avium CNCTC My 152/73 assessed as growth inhibition after 14 days by microdilution method; format: functional; settings: CNCTC My 152/73, 336 h
Mycobacterium avium [10] = test: Antimycobacterial activity against Mycobacterium avium CNCTC My 80/72 assessed as growth inhibition after 14 days by microdilution method; format: functional; settings: CNCTC My 80/72, 336 h
Mycobacterium kansasii = test: Antimycobacterial activity against Mycobacterium kansasii CNCTC My 235/80 assessed as growth inhibition after 14 days by microdilution method; format: functional; settings: CNCTC My 235/80, 336 h
[11] = system: Mycobacterium tuberculosis; test: Antimycobacterial activity against Mycobacterium tuberculosis H37Rv assessed as growth inhibition after 14 days by microdilution method; format: functional; settings: 336 h

Row | Structure (SMILES) | Stability [1] | growth inhibition (GI) [2] | growth inhibition (GI) (Lichtheimia corymbifera) | growth inhibition (GI) (Aspergillus fumigatus) | growth inhibition (GI) (Trichosporon asahii) | growth inhibition (GI) (Nakaseomyces glabratus) | growth inhibition (GI) (Pichia kudriavzevii) | growth inhibition (GI) (Candida albicans) | growth inhibition (GI) (Candida tropicalis) | growth inhibition (GI) (Klebsiella pneumoniae [3]) | growth inhibition (GI) (Klebsiella pneumoniae [4]) | growth inhibition (GI) (Enterococcus) | growth inhibition (GI) [5] | growth inhibition (GI) (Staphylococcus aureus [6]) | growth inhibition (GI) (Pseudomonas aeruginosa) | growth inhibition (GI) (Escherichia coli) | growth inhibition (GI) (Staphylococcus aureus [7]) | log K [8] | MIC (Mycobacterium avium [9]) [µg/mL] | MIC (Mycobacterium avium [10]) [µg/mL] | other results
1 | O=C(NCc1ccccc1Cl)c1cnc(Cl)cn1 | Stable | inactive | inactive | inactive | inactive | inactive | inactive | inactive | inactive | inactive | inactive | inactive | inactive | inactive | inactive | inactive | inactive | 0.4168 | > 100 | > 100 | MIC (Mycobacterium kansasii): 6.25 µg/mL (≈ 22.2 µM); MIC [11]: 25 µg/mL (≈ 88.6 µM)
2 | COc1ccc(CNC(=O)c2cnc(Cl)cn2)c(OC)c1 | Stable | inactive | inactive | inactive | inactive | inactive | inactive | inactive | inactive | inactive | inactive | inactive | inactive | inactive | inactive | inactive | inactive | 0.2266 | > 100 | > 100 | MIC (Mycobacterium kansasii): > 100 µg/mL; MIC [11]: > 100 µg/mL
3 | Cc1ccccc1CNC(=O)c1cnc(Cl)cn1 | Stable | inactive | inactive | inactive | inactive | inactive | inactive | inactive | inactive | inactive | inactive | inactive | inactive | inactive | inactive | inactive | inactive | 0.3947 | > 100 | > 100 | MIC (Mycobacterium kansasii): 25 µg/mL (≈ 95.5 µM); MIC [11]: 50 µg/mL (≈ 191 µM)
4 | O=C(Nc1cccc(Cl)c1)c1cnc(Cl)cn1 | Stable | inactive | inactive | inactive | inactive | inactive | inactive | inactive | inactive | inactive | inactive | inactive | inactive | inactive | inactive | inactive | inactive | 0.5873 | 25 (≈ 93.2 µM) | 25 (≈ 93.2 µM) | MIC (Mycobacterium kansasii): 25 µg/mL (≈ 93.2 µM); MIC [11]: 3.13 µg/mL (≈ 11.7 µM)
5 | O=C(NCc1cccc([N+](=O)[O-])c1)c1cnc(Cl)cn1 | Stable | inactive | inactive | inactive | inactive | inactive | inactive | inactive | inactive | inactive | inactive | inactive | inactive | inactive | inactive | inactive | inactive | 0.1189 | > 100 | > 100 | MIC (Mycobacterium kansasii): 12.5 µg/mL (≈ 42.7 µM); MIC [11]: > 100 µg/mL
6 | COc1ccc(NC(=O)c2cnc(Cl)cn2)c(OC)c1 | Stable | inactive | inactive | inactive | inactive | inactive | inactive | inactive | inactive | inactive | inactive | inactive | inactive | inactive | inactive | inactive | inactive | 0.5791 | > 100 | > 100 | MIC (Mycobacterium kansasii): > 100 µg/mL; MIC [11]: > 100 µg/mL
7 | O=C(NCc1ccccc1C(F)(F)F)c1cnc(Cl)cn1 | Stable | inactive | inactive | inactive | inactive | inactive | inactive | inactive | inactive | inactive | inactive | inactive | inactive | inactive | inactive | inactive | inactive | 0.4851 | > 100 | > 100 | MIC (Mycobacterium kansasii): 100 µg/mL (≈ 317 µM); MIC [11]: 25 µg/mL (≈ 79.2 µM)
8 | O=C(Nc1ccccc1F)c1cnc(Cl)cn1 | Stable | inactive | inactive | inactive | inactive | inactive | inactive | inactive | inactive | inactive | inactive | inactive | inactive | inactive | inactive | inactive | inactive | 0.4903 | > 100 | > 100 | MIC (Mycobacterium kansasii): 12.5 µg/mL (≈ 49.7 µM); MIC [11]: 6.25 µg/mL (≈ 24.8 µM)
9 | O=C(NCc1ccccc1F)c1cnc(Cl)cn1 | Stable | inactive | inactive | inactive | inactive | inactive | inactive | inactive | inactive | inactive | inactive | inactive | inactive | inactive | inactive | inactive | inactive | 0.3395 | > 100 | > 100 | MIC (Mycobacterium kansasii): 50 µg/mL (≈ 188 µM); MIC [11]: 25 µg/mL (≈ 94.1 µM)
10 | O=C(Nc1ccc(Br)cc1)c1cnc(Cl)cn1 | Stable | inactive | inactive | inactive | inactive | inactive | inactive | inactive | inactive | inactive | inactive | inactive | inactive | inactive | inactive | inactive | inactive | 0.6601 | > 100 | > 100 | MIC (Mycobacterium kansasii): 6.25 µg/mL (≈ 20 µM); MIC [11]: 3.13 µg/mL (≈ 10 µM)

Source: ChEMBL document CHEMBL2396653, “Synthesis and antimycobacterial evaluation of N-substituted 5-chloropyrazine-2-carboxamides” (Bioorg Med Chem Lett, 2013)
